Data: patent US20220001083A1, “METHOD FOR THE MODIFICATION OF A DEVICE SURFACE BY GRAFTING A CD31-DERIVED PEPTIDE ONTO THE SURFACE OF SAID DEVICE” (BALT EXTRUSION, priority 2018, published 2022)

Tested on: erythrocytes of human peripheral whole blood
Assay: hemolysis assay
Format: cell-based
Conditions: photograph of the microplate before absorbance reading
Experimental: The hemolysis assay is a required biocompatibility test for all blood-contacting devices. […] The hemolysis assay protocol we used was adapted from the one used by Bae and coworkers (Bae, I.-H., Park, I.-K., Park, D. S., Lee, H. and Jeong, M. H. 2012. Journal of Materials Science: Materials in Medicine 23 (5): 1259-1269.) as detailed below.
Coated and bare CoCr disks were placed in the wells of a 96-well plate and sterilized by a ten minute incubation in 70° ethanol. The disks were rinsed several times in water prior to a final wash in physiological saline solution (0.9% NaCl). […]
Disk-free wells were used as negative controls and 1% Triton X-100 (which causes the lysis of most erythrocytes through the dissolution of their plasma cell membrane) was added in blood-containing positive control wells. […] Absorbance was measured at 540 nm in a plate reader spectrophotometer (Infinite 200 PRO, TECAN). 540 nm corresponds to the absorbance peak of free hemoglobin, which is released by hemolysis from the erythrocytes. The value of the absorbance at 540 nm is therefore directly proportional to the extent of hemolysis caused by the sample disks in the experimental wells. […]
For each experiment, these observations were quantified by absorbance reading at 540 nm, and the measurements were normalized using the values obtained with the positive and negative controls, according to the following formula: […]

Triton X-100
macroscopic colour of platelet-poor plasma (hemolysis): effective hemolysis
